Where two headings read alike, the source gives them in different places.
What was measured:
[1] = dose of 50 mg/day; cited from earlier work
[2] = tested on: methamphetamine dependent subjects; assay type: in vivo, human
Procedure: Methods—The study was conducted at 8 sites, 140 subjects consented, screened for study eligibility and met DSM-IV criteria for methamphetamine dependence. Subjects were randomized to topiramate or placebo at 50 mg, escalating to 200 mg topiramate daily over weeks 1-5, and 200 mg daily over weeks 6-12. The primary outcome measure was abstinence from methamphetamine during study weeks 6 through 12. Methamphetamine use was determined using qualitative urine testing at a central laboratory. The primary outcome was analyzed using a Generalized Estimating Equation (GEE) model during weeks 6 through 12. Secondary outcomes included use reduction compared to baseline, relapse rate for subjects with negative urine at randomization, and craving. Blood samples were collected for genetic markers to examine the effects of topiramate on gene expression and to correlate genetic subtypes with response to treatment. RNA samples were collected from whole blood for 50 topiramate- and 49 placebo-treated individuals at baseline and weeks 8 and 12. Genome-wide expression profiles between positive and negative responders for Weeks 8 and 12 from placebo- and topiramate-treated groups were compared.

[3] = cited from earlier work

Compound	Individuals in alcohol trials unable to tolerate naltrexone [1]	Treatment effect on primary outcome variable (abstinence from methamphetamine, weeks 6-12) ([2]; all subjects)	Treatment effect, exploratory analysis ([2]; subjects (n=26) with negative urine prior to randomization, p=0.02)	Treatment effect, exploratory analysis ([2]; subjects (n=35) whose baseline use was <18 days out of previous 30, p=0.03)	Cognitive impairment reported by individuals who take topiramate ([3]; general population) [%]	Occurrence rate of cognitive impairment ([3]; substance abuse field)
Cl.O=C1CC[C@@]2(O)[C@H]3Cc4ccc(O)c5c4[C@@]2(CCN3CC2CC2)[C@H]1O5 [naltrexone, 17-(Cyclopropylmethyl)-4,5a-epoxy-3,14-dihydroxymorphinan-6-one hydrochloride]	about 15%	–	–	–	–	–
CC1(C)O[C@@H]2[C@@H](CO[C@@]3(COS(N)(=O)=O)OC(C)(C)O[C@@H]23)O1 [topiramate, 2,3:4,5-Bis-O-(1-methylethylidene)-beta-D-fructopyranose sulfamate]	–	no significant treatment effect	significant treatment effect	significant treatment effect	2.4	about 18.7%
